Reference: PMC6013238, “Development of novel NEMO-binding domain mimetics for inhibiting IKK/NF-κB activation” (PLoS Biology, 2018)
“And” between values parts separate entries of the source, which are not always exact repeats. Identical values can stand only once.

How the values were obtained:
IL-6 production = test: Mouse IL-6 ELISA of supernatant of LPS-stimulated Raw 264.7 cells; type: cell-based; details: LPS 1 μg/ml 24 h; for mIL-6 in supernatant (ELISA): Fig 4D; for Effect on LPS-induced IL-6 production (ELISA): 25 and 50 μM
Experimental: Fig 4 Modified lead NBD mimetics inhibit TNF-α- and LPS-induced NF-κB activation by disrupting the association between NEMO and IKKβ. (A) Structures of top NBD mimetics. (B) Measurement of NF-κB activation in response to TNF-α by using Dual-luciferase reporter assays. HEK293 cells cotransfected with NF-κB luciferase reporter and SV40-Renilla plasmids were pretreated with DMSO or listed small molecules at 0, 25, 50, 100, and 150 μM for 30 min, followed by the induction of TNF-α for 3 h. Data shown are representative of 2–3 independent experiments. […] Raw 264.7 cells were pretreated with indicated drugs for 30 min and then stimulated with 1 μg/ml of LPS for 2 h. Cells were then harvested for RNA extraction and qRT-PCR analysis. Drug concentrations used are as follows: IKKi VII (2 μM), 8K-NBD peptide (200 μM), SR12343 (50 μM), SR12460 (50 μM), SR12454 (50 μM), and SR11481 (50 μM). Data are representative of 2 independent experiments. […] Raw 264.7 cells pretreated with DMSO or drugs at indicated concentrations were exposed to 1 μg/ml of LPS for 24 h, and supernatant was collected for ELISA analysis of mouse IL-6. *P < 0.05; **P < 0.01. Underlying data can be found in S1 Data. HEK293, human embryonic kidney 293 cells; IKK, IκB kinase; IL-6, interleukin 6; LPS, lipopolysaccharide; NBD, NEMO-binding domain; n.d., nondetectable; NEMO, NF-κB essential modulator; NF-κB, nuclear factor κB; qRT-PCR, […] real-time polymerase chain reaction; TNF-α; tumor necrosis factor α. TEXT PRINTED IN THE PICTURE: (D) ikki VII: mIL-6 (ng/ml): n.d. | (D) SR12460: mIL-6 (ng/ml): n.d. (50μM) | (D) SR12454: mIL-6 (ng/ml): n.d. (50μM) DOUBTS OF THE COPYIST ABOUT THIS PICTURE: Panel D: the only printed results are the three "n.d." labels. They stand in place of bars and are assigned to ikki VII, SR12460 50μM and SR12454 50μM by their position on the axis. All other results are shown only as bars, with no printed numbers.
To confirm the qRT-PCR results, the levels of IL-6 production in Raw 264.7 cells activated by LPS were analyzed by ELISA.
Raw 264.7 cells were grown in 96-well plates and pretreated with vehicle, IKKi VII (2 μM), and small molecules (at indicated concentration) for 1 h, followed by the stimulation with 1 μg/ml of LPS. Supernatant was collected 24 h later for ELISA analysis. IL-6 concentration was measured using a mouse IL-6 ELISA kit (BD) according to the manufacturer’s instructions.

[1] = Serum AST, ALT and ALP of chronically treated mdx mice; type: in vivo, mouse; details: for Liver toxicity (serum AST, ALT, ALP): chronically treated mdx mice, 30 mg/kg; for ALP Final Concentration / ALT Final Concentration / AST Final Concentration: serum, individual mouse (FigS3B)
[2] = Stability time course in FBS media with or without acetonitrile; type: in vitro ADME
Experimental: To confirm that the NBD mimetics reduce IKK kinase activity, phosphorylation of IκBα by IKK in response to 10 ng/ml of TNF-α was measured by western blot at 0, 5, and 10 min after stimulation. […] To determine whether the mimetics also reduce NF-κB DNA binding activity, electrophoretic mobility shift assay (EMSA) was conducted both in vitro and in vivo. […] The addition of acetonitrile increased the stability of both ZINC compounds, especially ZINC 5 (Fig 3D).
Fig 3 Two identified small molecules reduce NF-κB DNA binding activity in vivo and in vitro. (A) Levels of p-IκBα with or without treatment in response to TNF-α were determined by western blot analysis. HEK293 cells were pretreated with DMSO, ZINC12909780 (100 μM), and ZINC5 (100 μM) for 30 min followed by the stimulation of 10 ng/ml of TNF-α for 0, 5, and 10 min. Cell lysates were prepared for immunoblot against p-IκBα. GAPDH was used as a loading control. (B) EMSA analysis detecting NF-κB DNA binding activity was performed in C2C12 myoblasts. Cells were pretreated with 200 μM of DMSO, ZINC12909780, and ZINC5 in serum-free media for 1 h. TNF-α was then added to a final concentration of 10 ng/ml and incubated for 15 min. Nuclear extract was obtained for EMSA analysis. (C) EMSA analysis assessing NF-κB DNA binding activity in vivo was performed with quadriceps from mdx mice. Single-dose ZINC12909780 and ZINC5 at 10 mg/kg was given by i.p. Quadriceps was harvested at 1 h and 2 h post injection for EMSA analysis. (D) The time-course pharmacokinetics of ZINC5 and ZINC12909780 in FBS media or FBS media containing acetonitrile. Underlying data can be found in S1 Data. EMSA, electrophoretic mobility shift assay; HEK293, human embryonic kidney 293 cells; i.p., intraperitoneal; NF-κB, nuclear factor κB; t1/2, half-life; TNF-α; tumor necrosis factor α.

## O=C(CNc1ccc(Cl)cn1)NCCc1cccc(Br)c1 [SR12343]
IL-6 production; 25 μM
  mIL-6 in supernatant (ELISA): 2.6915 ng/mL and 2.4446 ng/mL and 1.843 ng/mL
IL-6 production
  Effect on LPS-induced IL-6 production (ELISA): inhibited IL-6 production, but was not as effective as SR12460 and SR12454
[1]
  Liver toxicity (serum AST, ALT, ALP): no overt liver toxicity
  ALP Final Concentration: 170 U/L and 225 U/L and 145 U/L
  ALT Final Concentration: 125 U/L and 160 U/L and 150 U/L and 260 U/L
  AST Final Concentration: 775 U/L and 1030 U/L and 875 U/L and 1560 U/L

## O=C(CNCCc1cc(F)cc(F)c1)Nc1ccc(Cl)cn1 [SR12460]
IL-6 production; 25 μM
  mIL-6 in supernatant (ELISA): 1.4838 ng/mL and 1.2369 ng/mL and 1.4569 ng/mL
IL-6 production; 50 μM
  mIL-6 in supernatant (ELISA): 0 ng/mL
IL-6 production
  Effect on LPS-induced IL-6 production (ELISA): inhibit IL-6 secretion significantly in a dose-dependent manner
[1]
  Liver toxicity (serum AST, ALT, ALP): no overt liver toxicity
  ALP Final Concentration: 195 U/L and 170 U/L and 160 U/L
  ALT Final Concentration: 215 U/L and 185 U/L
  AST Final Concentration: 1245 U/L and 1330 U/L and 1415 U/L

## Nc1ncccc1C(=O)OCC(=O)Nc1ccc(Cl)cc1F [ZINC12909780]
[2]
  Stability in cell culture media containing FBS: relatively more stable
[2]; bovine, FBS media containing acetonitrile, fbs-media+acetonitrile, 15 min
  remaining at 0.25 h: 94.8%
[2]; bovine, FBS media containing acetonitrile, fbs-media+acetonitrile, 30 min
  remaining at 0.5 h: 103%
[2]; bovine, FBS media containing acetonitrile, fbs-media+acetonitrile, 60 min
  remaining at 1 h: 106%
[2]; bovine, FBS media containing acetonitrile, fbs-media+acetonitrile, 240 min
  remaining at 4 h: 104%
[2]; bovine, cell culture media containing FBS, FBS-media
  half-life: 15 h
[2]; bovine, cell culture media containing FBS, fbs-media, 15 min
  remaining at 0.25 h: 101%
[2]; bovine, cell culture media containing FBS, fbs-media, 30 min
  remaining at 0.5 h: 105%
[2]; bovine, cell culture media containing FBS, fbs-media, 60 min
  remaining at 1 h: 92%
[2]; bovine, cell culture media containing FBS, fbs-media, 240 min
  remaining at 4 h: 85%

## O=C(COC(=O)Cc1ccccc1F)Nc1ccc(Cl)cn1 [ZINC5]
[2]
  Stability in cell culture media containing FBS: extremely unstable
[2]; FBS-media
  t1/2: 1.5 h
[2]; FBS-media+acetonitrile
  t1/2: 10.8 h
[2]; fbs-media+acetonitrile, 15 min
  % remaining: 77.2%
[2]; fbs-media+acetonitrile, 30 min
  % remaining: 85.8%
[2]; fbs-media+acetonitrile, 60 min
  % remaining: 86.3%
[2]; fbs-media+acetonitrile, 240 min
  % remaining: 69.4%
[2]; fbs-media, 15 min
  % remaining: 90.8%
[2]; fbs-media, 30 min
  % remaining: 79.8%
[2]; fbs-media, 60 min
  % remaining: 61.8%
[2]; fbs-media, 240 min
  % remaining: 16.4%
